Data published in BindingDB's records for PubMed 8093723 (Dainippon Pharmaceutical, 1993).

Experiments:
[1] = biological target: Gamma-aminobutyric acid (GABA) B receptor 1 (Rattus norvegicus, UniProt Q6MFX8)
D(2) dopamine receptor = D(2) dopamine receptor (Rattus norvegicus, UniProt P61169)
[2] = biological target: Sigma non-opioid intracellular receptor 1 (Cavia porcellus, UniProt Q60492)
[3] = biological target: Gamma-aminobutyric acid receptor subunit alpha-1 (Rattus norvegicus, UniProt P62813)
Sequence of Gamma-aminobutyric acid receptor subunit alpha-1 (P62813 whole entry): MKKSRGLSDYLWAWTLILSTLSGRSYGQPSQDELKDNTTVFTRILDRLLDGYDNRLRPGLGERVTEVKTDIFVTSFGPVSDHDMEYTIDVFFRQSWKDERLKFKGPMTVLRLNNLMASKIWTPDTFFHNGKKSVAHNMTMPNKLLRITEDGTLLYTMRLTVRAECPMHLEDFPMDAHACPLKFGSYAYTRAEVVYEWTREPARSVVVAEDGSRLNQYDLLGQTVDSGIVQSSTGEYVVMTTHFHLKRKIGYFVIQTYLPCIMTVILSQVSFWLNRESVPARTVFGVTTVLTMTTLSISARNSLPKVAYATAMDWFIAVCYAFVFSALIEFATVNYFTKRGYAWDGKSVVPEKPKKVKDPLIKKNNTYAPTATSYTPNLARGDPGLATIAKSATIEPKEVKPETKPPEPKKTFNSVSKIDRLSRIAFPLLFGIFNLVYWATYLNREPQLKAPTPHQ

[4] = biological target: T1, Muscarinic acetylcholine receptor M2 (Rattus norvegicus, UniProt P10980)
T1 sequence (P10980 whole entry): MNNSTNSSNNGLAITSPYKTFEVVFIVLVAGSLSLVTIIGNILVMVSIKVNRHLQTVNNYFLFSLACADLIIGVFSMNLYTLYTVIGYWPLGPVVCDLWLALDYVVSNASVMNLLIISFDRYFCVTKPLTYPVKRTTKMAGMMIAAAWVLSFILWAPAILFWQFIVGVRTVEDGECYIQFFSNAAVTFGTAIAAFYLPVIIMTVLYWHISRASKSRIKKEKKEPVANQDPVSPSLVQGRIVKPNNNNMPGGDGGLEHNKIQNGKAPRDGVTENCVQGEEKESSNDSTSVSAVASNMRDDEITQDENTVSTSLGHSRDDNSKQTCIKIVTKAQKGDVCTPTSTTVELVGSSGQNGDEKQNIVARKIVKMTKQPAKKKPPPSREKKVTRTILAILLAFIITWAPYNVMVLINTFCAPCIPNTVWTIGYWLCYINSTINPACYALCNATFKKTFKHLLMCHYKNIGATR

D(1A) dopamine receptor = D(1A) dopamine receptor (Rattus norvegicus, UniProt P18901)
Sequence of D(1A) dopamine receptor (P18901 whole entry): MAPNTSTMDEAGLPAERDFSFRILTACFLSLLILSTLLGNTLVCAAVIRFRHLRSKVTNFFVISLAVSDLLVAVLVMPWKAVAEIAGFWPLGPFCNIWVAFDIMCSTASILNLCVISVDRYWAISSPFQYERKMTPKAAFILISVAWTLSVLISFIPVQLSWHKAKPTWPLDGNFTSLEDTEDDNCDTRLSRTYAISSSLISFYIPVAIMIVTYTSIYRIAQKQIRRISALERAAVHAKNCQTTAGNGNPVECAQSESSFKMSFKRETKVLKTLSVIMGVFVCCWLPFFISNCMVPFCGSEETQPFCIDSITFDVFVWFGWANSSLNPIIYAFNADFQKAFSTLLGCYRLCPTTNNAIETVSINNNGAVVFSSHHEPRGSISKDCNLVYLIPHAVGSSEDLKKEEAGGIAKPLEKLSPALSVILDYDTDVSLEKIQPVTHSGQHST

Histamine H1 receptor = Histamine H1 receptor (Rattus norvegicus, UniProt P31390)
Sequence of Histamine H1 receptor (P31390 whole entry): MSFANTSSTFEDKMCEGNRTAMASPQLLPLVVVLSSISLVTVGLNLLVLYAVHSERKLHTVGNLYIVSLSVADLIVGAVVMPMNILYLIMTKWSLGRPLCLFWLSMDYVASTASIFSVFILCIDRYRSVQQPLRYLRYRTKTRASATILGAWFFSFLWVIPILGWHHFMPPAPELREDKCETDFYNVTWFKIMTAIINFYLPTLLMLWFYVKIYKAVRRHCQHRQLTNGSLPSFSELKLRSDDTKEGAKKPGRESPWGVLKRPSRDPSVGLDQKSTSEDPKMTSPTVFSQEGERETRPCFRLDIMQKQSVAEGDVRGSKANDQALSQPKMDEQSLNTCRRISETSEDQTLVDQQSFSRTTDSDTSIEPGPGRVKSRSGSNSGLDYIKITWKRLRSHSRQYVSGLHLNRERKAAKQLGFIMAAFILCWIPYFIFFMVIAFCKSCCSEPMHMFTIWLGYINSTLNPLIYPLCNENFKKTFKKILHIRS

[5] = biological target: Beta-2 adrenergic receptor (Rattus norvegicus, UniProt P10608)
Sequence of Beta-2 adrenergic receptor (P10608 whole entry): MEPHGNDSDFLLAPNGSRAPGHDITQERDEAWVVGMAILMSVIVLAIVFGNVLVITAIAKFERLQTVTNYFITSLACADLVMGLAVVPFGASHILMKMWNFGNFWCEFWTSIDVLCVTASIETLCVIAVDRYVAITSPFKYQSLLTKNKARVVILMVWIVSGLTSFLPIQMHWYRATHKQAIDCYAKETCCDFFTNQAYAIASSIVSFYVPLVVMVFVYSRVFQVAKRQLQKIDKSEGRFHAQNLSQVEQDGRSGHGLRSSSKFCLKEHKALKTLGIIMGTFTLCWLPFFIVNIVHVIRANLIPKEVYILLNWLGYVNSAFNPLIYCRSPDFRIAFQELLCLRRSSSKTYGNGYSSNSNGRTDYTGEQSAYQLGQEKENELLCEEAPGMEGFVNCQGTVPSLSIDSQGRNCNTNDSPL

Sequence of Sigma non-opioid intracellular receptor 1 (Q60492 whole entry): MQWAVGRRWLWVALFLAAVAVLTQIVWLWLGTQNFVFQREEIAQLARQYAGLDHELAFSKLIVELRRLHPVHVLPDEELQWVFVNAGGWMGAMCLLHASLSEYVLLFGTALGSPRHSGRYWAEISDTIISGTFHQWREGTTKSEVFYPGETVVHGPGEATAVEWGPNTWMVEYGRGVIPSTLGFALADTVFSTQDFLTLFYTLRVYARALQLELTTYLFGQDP
Sequence of D(2) dopamine receptor (P61169 whole entry): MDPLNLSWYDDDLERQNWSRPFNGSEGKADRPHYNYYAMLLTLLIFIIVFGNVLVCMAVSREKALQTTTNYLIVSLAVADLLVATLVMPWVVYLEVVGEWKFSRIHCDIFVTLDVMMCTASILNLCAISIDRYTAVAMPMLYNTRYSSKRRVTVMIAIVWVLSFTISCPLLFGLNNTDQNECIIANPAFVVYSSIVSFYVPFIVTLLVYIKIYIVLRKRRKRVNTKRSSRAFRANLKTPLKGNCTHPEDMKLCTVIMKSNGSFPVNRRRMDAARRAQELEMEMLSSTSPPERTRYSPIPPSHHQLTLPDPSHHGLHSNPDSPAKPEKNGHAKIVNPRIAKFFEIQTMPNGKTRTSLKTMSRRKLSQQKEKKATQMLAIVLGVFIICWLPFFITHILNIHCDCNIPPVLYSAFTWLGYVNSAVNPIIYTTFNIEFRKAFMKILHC
Sequence of Gamma-aminobutyric acid (GABA) B receptor 1 (Q6MFX8 whole entry): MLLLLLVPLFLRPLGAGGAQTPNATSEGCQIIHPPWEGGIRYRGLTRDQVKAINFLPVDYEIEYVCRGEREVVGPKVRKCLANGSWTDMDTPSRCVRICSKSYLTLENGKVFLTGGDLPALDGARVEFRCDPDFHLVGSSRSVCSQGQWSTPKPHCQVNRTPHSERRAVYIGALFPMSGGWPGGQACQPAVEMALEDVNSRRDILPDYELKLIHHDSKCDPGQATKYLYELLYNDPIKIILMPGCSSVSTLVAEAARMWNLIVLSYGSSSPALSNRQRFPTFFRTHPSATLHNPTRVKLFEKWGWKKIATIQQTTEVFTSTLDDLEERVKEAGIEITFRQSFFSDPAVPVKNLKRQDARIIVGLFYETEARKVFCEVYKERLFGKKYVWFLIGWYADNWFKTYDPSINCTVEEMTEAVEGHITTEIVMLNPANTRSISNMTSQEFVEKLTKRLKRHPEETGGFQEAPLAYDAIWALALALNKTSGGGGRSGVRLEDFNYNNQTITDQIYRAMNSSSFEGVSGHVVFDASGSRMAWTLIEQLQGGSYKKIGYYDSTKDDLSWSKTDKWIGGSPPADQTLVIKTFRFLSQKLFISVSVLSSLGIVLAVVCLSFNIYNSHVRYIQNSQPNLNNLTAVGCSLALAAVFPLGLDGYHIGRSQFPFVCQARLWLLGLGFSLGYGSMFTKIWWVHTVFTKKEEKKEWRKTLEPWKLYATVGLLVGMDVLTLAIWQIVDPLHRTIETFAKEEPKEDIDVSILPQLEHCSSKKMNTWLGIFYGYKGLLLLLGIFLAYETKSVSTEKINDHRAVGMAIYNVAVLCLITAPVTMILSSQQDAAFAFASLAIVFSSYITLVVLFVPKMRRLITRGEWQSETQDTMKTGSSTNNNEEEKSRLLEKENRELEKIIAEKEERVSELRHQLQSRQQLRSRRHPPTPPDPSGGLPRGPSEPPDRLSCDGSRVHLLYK

CCN1CCN(c2cc(-c3ccc(F)cc3)c3c(n2)CCCCCC3)CC1 [AD-5423]
Ki [1]: > 10000 nM
Ki (D(2) dopamine receptor): 14.8 nM
Ki [2]: 286 nM
Ki [3]: > 10000 nM
Ki [4]: 2300 nM
Ki (D(1A) dopamine receptor): 2870 nM
Ki (Histamine H1 receptor): 3010 nM
Ki [5]: > 10000 nM
